The values that follow come from the SangsterLogP compilation.

A short description of this data set: method code SF-AS, from DOI: 10.1016/s0006-291x(89)80063-4, PMID: 2916990. As to conditions: pH 7.5.

Consider `O=c1ccn([C@H]2C=C[C@@H](CO)O2)c(=O)[nH]1`, for which the logD was -1.07.

In the case of `Nc1nc2c(ncn2[C@H]2C=C[C@@H](CO)O2)c(=O)[nH]1`, the logD was -1.21.

`O=c1[nH]c(=O)n([C@H]2CC[C@@H](CO)O2)cc1Cl` registered a logD of -1.11.

For `O=c1[nH]c(=O)n([C@H]2CC[C@@H](CO)O2)cc1Br`, the logD is -0.99.

`[N-]=[N+]=N[C@H]1C[C@H](n2cnc3c(N)ncnc32)O[C@@H]1CO` returned a logD of 0.35.

Consider `[N-]=[N+]=N[C@H]1C[C@H](n2cnc3c(N)nc(N)nc32)O[C@@H]1CO`, for which the logD is 0.24.

Consider `O=c1[nH]c(=O)n([C@H]2CC[C@@H](CO)O2)cc1I`, for which the logD was -0.61.

With `Nc1nc2c(ncn2[C@H]2CC[C@@H](CO)O2)c(=O)[nH]1`, the logD is -1.01.

In turn, `O=c1ccn([C@H]2C[C@H](F)[C@@H](CO)O2)c(=O)[nH]1` had a logD of -0.49.

In turn, `O=c1[nH]c(=O)n([C@H]2C[C@H](F)[C@@H](CO)O2)cc1Br` came in with a logD of -0.04.

`O=c1[nH]c(=O)n([C@H]2C[C@H](F)[C@@H](CO)O2)cc1Cl` registered a logD of -0.17.

Consider `Nc1nc(N)c2ncn([C@H]3C[C@H](O)[C@@H](CO)O3)c2n1`, for which the logD was -0.52.

`Nc1ncnc2c1ncn2[C@H]1C=C[C@@H](CO)O1` had a logD of -0.36.

As to `O=c1ccn(C2CCC(CO)O2)c(=O)[nH]1` (stereo unspecified), the logD was -0.89.

The compound `Nc1nc2c(ncn2[C@H]2C[C@H](F)[C@@H](CO)O2)c(=O)[nH]1` yielded a logD of -0.66.

In the case of `[N-]=[N+]=N[C@@H]1[C@H](N=[N+]=[N-])[C@@H](CO)O[C@H]1n1cnc2c(N)ncnc21`, the logD turned out to be 0.8.

In turn, `[N-]=[N+]=N[C@H]1C[C@H](n2cnc3c(=O)[nH]c(N)nc32)O[C@@H]1CO` gave a logD of -0.33.

Consider `[N-]=[N+]=N[C@H]1C[C@H](n2ccc(N)nc2=O)O[C@@H]1CO`, for which the logD was -0.64.

With `Nc1ncnc2c1ncn2[C@H]1C[C@H](F)[C@@H](CO)O1`, the logD worked out at 0.08.

With `Nc1nc(N)c2ncn([C@H]3CC(F)[C@@H](CO)O3)c2n1` (stereo partly specified), the pH-dependent lipophilicity (logD) came out at 0.05.

Compound `O=c1ccn([C@H]2C[C@H](O)[C@@H](CO)O2)c(=O)[nH]1` had a logD of -1.51.
